Measured values reported in patent US7622469B2, “2,4-diamino-1,3,5-triazine derivatives” (Hamari Chemicals, Ltd., priority 2002, dated 2009).
≈ marks a conversion by molar mass, not a printed value.

How the values were obtained:
MRSA 97-115 [1] = test: Antibacterial activity test (MIC); type: cell-based, methicillin-resistant Staphylococcus aureus; settings: Mueller-Hinton Broth, 37° C., 20 to 24 hours
Procedure: (§1) Regarding compounds obtained in respective Working Examples, in order to investigate antibacterial activity, minimal inhibitory concentration (MIC) was determined according to a standard method of Japanese Society of Chemotherapy.
(§2) As a test bacterium, nine kinds of S. aureus 209PJC, MRSA 97-115, MRSA KM 97-53, MRSA KM97-108, VRE 49, E. coli NIHJ JC-2, P. aeruginosa PAO-1, P. aeruginosa No. 12, P. aeruginosa KM97-5 were used and, as a medium, Mueller-Hinton Broth (DIFCO) was used. One platinum loop of a test bacterium was inoculated into 20 ml of a medium, and static culture was carried out at 37° C. for 16 to 20 hours, and then each bacterium species was diluted with a sterilized physiological saline to 10^5/ml, which was used as a test bacterium solution.
(§3) Then, each compound was dissolved in methanol, subjected to ½ stepwise dilution with a medium to prepare a medium for measuring sensitivity, and each 2 ml was dispensed into a test tube. A compound concentration in a medium was adjusted to 100 μg/ml and its 2^n-fold (n=−10 to 1).
(§4) Numerical values in Tables represent MIC expressed in μg/ml unit.

E. coli NIHJ JC-2 [2] = test: Antibacterial activity test (MIC); type: cell-based; settings: Mueller-Hinton Broth, 37° C., 20 to 24 hours
Procedure: as §1, §2, §3, §4

P. aeruginosa PAO-1 [3] = test: Antibacterial activity test (MIC); type: cell-based; settings: Mueller-Hinton Broth, 37° C., 20 to 24 hours
Procedure: as §1, §2, §3, §4

S. aureus 209PJC [4] = test: Antibacterial activity test (MIC); type: cell-based; settings: Mueller-Hinton Broth, 37° C., 20 to 24 hours
Procedure: as §1, §2, §3, §4

E. coli NIHJ JC-2 [5] = test: Bactericidal activity test (MBC, phenol coefficient measuring method); type: cell-based
Procedure: (§5) As a test bacterium, the same bacteria species as those of the antibacterial activity test were used; as a medium to be used, a SCD medium (manufactured by Eiken Chemical Co., Ltd.) was used for pre-culture medium; and a heart infusion bouillon medium (manufactured by Eiken Chemical Co., Ltd.) was used as a medium for growing a live bacterium in a test solution after bactericidal treatment. One platinum loop of a test bacterium was inoculated into 20 ml of a medium, and static culture was carried out at 37° C. for 18 to 20 hours, and the cells were adjusted with a sterilized physiological saline to 1×10^7/ml, which was used as a test bacterium solution.
(§6) Then, a solution of each compound in methanol was subjected to ½ stepwise dilution with sterilized water, each 5 ml was dispensed into a test tube, 0.5 ml of the previously prepared test bacterium solution was added thereto, and the mixture was blended well. After 1 minute, 3 minutes and 5 minutes has passed, 5 μl of the test solution was collected and inoculated into 2 ml of a heart infusion bouillon medium, this was cultured at 37° C. for 40 to 48 hours, and the presence or absence of growth of a bacterium was determined. A test was performed three times, a minimum concentration at which growth of a bacterium was not recognized two or more times was adopted as a minimal bactericidal concentration (MBC value).
(§7) Numerical values in Tables represent MBC expressed in μg/ml unit.

P. aeruginosa PAO-1 [6] = test: as above; type: cell-based
Procedure: as §5, §6, §7

S. aureus 209PJC [7] = test: as above; type: cell-based
Procedure: as §5, §6, §7

MRSA 97-115 [8] = test: as above; type: cell-based, methicillin-resistant Staphylococcus aureus
Procedure: as §5, §6, §7

| Structure (SMILES) | minimal inhibitory concentration (MIC) (MRSA 97-115 [1]) [µg/mL] | minimal inhibitory concentration (MIC) (E. coli NIHJ JC-2 [2]) [µg/mL] | minimal inhibitory concentration (MIC) (P. aeruginosa PAO-1 [3]) [µg/mL] | minimal inhibitory concentration (MIC) (S. aureus 209PJC [4]) [µg/mL] | minimal bactericidal concentration (MBC) (E. coli NIHJ JC-2 [5]; 1 min) [µg/mL] | minimal bactericidal concentration (MBC) (E. coli NIHJ JC-2 [5]; 3 min) [µg/mL] | minimal bactericidal concentration (MBC) (E. coli NIHJ JC-2 [5]; 5 min) [µg/mL] | minimal bactericidal concentration (MBC) (P. aeruginosa PAO-1 [6]; 1 min) [µg/mL] | minimal bactericidal concentration (MBC) (P. aeruginosa PAO-1 [6]; 3 min) [µg/mL] | minimal bactericidal concentration (MBC) (P. aeruginosa PAO-1 [6]; 5 min) [µg/mL] | minimal bactericidal concentration (MBC) (S. aureus 209PJC [7]; 1 min) [µg/mL] | minimal bactericidal concentration (MBC) (S. aureus 209PJC [7]; 3 min) [µg/mL] | minimal bactericidal concentration (MBC) (S. aureus 209PJC [7]; 5 min) [µg/mL] | minimal bactericidal concentration (MBC) (MRSA 97-115 [8]; 1 min) [µg/mL] | minimal bactericidal concentration (MBC) (MRSA 97-115 [8]; 3 min) [µg/mL] | minimal bactericidal concentration (MBC) (MRSA 97-115 [8]; 5 min) [µg/mL] |
| --- | --- | --- | --- | --- | --- | --- | --- | --- | --- | --- | --- | --- | --- | --- | --- | --- |
| CCCCCCCCCCCCC1N=C(N)NC(NCCc2ccc(OC)cc2)=N1.Cl (racemic) [15(1)] | 1.6 | 25 | 50 | 0.4 | 6.3 | 3.1 | 1.6 | 6.3 | 3.1 | 3.1 | 12.5 | 3.1 | 3.1 | 25 | 12.5 | 6.3 |
| CCCCCCCCCCNC1=NC(C)(C)N=C(NCc2ccc(OC)cc2)N1.CS(=O)(=O)O [38(2)] | 0.8 | 25 | 100 | 0.4 | 6.3 | 3.1 | 3.1 | 6.3 | 3.1 | 1.6 | 12.5 | 6.3 | 3.1 | 25 | 12.5 | 12.5 |
| CCCCCCCCCCNC1=NC(C)(C)N=C(NCc2ccccc2)N1.CS(=O)(=O)O [compound 2] | 0.8 | – | – | 0.4 | 6.3 | 3.1 | 3.1 | 3.1 | 1.6 | 1.6 | 12.5 | 6.3 | 3.1 | 25 | 12.5 | 6.3 |
| CCCCCCCCCCNC1=NC(C)(C)N=C(NCCc2ccc(OC)cc2)N1.Cl [compound 4] | 0.8 | 50 | 50 | 0.4 | 3.1 | 1.6 | 1.6 | 3.1 | 3.1 | 1.6 | 50 | 12.5 | 6.3 | 25 | 6.3 | 6.3 |
| CCCCCCCCCCC1N=C(N)N=C(N)N1c1ccc(F)c(F)c1F.Cl (stereo not shown) [compound 31] | 3.1 | 12.5 | 25 | 1.6 | 12.5 | 12.5 | 6.3 | 12.5 | 12.5 | 6.3 | 25 | 12.5 | 12.5 | 25 | 12.5 | 6.3 |
| Br.CCCCCCCCCNC1=NC(C)(C)N=C(NCc2ccccc2)N1 [compound 49] | 0.8 | 12.5 | 25 | 0.4 | 12.5 | 6.3 | 3.1 | 12.5 | 3.1 | 3.1 | 12.5 | 6.3 | 6.3 | 25 | 12.5 | 12.5 |

Further lines, with some results ahead:

| minimal inhibitory concentration (MIC) (MRSA 97-115 [1]) [µg/mL] | minimal inhibitory concentration (MIC) (E. coli NIHJ JC-2 [2]) [µg/mL] | minimal inhibitory concentration (MIC) (P. aeruginosa PAO-1 [3]) [µg/mL] | minimal inhibitory concentration (MIC) (S. aureus 209PJC [4]) [µg/mL] | Structure (SMILES) | minimal bactericidal concentration (MBC) (E. coli NIHJ JC-2 [5]; 1 min) [µg/mL] | minimal bactericidal concentration (MBC) (E. coli NIHJ JC-2 [5]; 3 min) [µg/mL] | minimal bactericidal concentration (MBC) (E. coli NIHJ JC-2 [5]; 5 min) [µg/mL] | minimal bactericidal concentration (MBC) (P. aeruginosa PAO-1 [6]; 1 min) [µg/mL] | minimal bactericidal concentration (MBC) (P. aeruginosa PAO-1 [6]; 3 min) [µg/mL] | minimal bactericidal concentration (MBC) (P. aeruginosa PAO-1 [6]; 5 min) [µg/mL] | minimal bactericidal concentration (MBC) (S. aureus 209PJC [7]; 1 min) [µg/mL] | minimal bactericidal concentration (MBC) (S. aureus 209PJC [7]; 3 min) [µg/mL] | minimal bactericidal concentration (MBC) (S. aureus 209PJC [7]; 5 min) [µg/mL] | minimal bactericidal concentration (MBC) (MRSA 97-115 [8]; 1 min) [µg/mL] | minimal bactericidal concentration (MBC) (MRSA 97-115 [8]; 3 min) [µg/mL] | minimal bactericidal concentration (MBC) (MRSA 97-115 [8]; 5 min) [µg/mL] |
| --- | --- | --- | --- | --- | --- | --- | --- | --- | --- | --- | --- | --- | --- | --- | --- | --- |
| 0.8 | 6.3 | 25 | 0.4 | CCCCCCCCCCCC1N=C(N)NC(NCc2ccccc2)=N1.Cl (racemic) [43(1)] | 12.5 | 6.3 | 3.1 | 3.1 | 3.1 | 3.1 | 25 | 6.3 | 6.3 | 50 | 25 | 12.5 |
| 0.8 | 25 | 25 | 0.8 | CCCCCCCCCC1N=C(N)N=C(N)N1c1ccc(C(C)(C)C)cc1.Cl (stereo not shown) [compound 22] | 6.3 | 6.3 | 6.3 | 12.5 | 3.1 | 3.1 | 12.5 | 6.3 | 6.3 | 25 | 25 | 12.5 |
| 1.6 (≈ 4.47 µM) | 12.5 (≈ 35 µM) | 25 (≈ 69.9 µM) | 0.8 (≈ 2.24 µM) | CCCCCCCCNC1=NC(C)(C)N=C(NCc2ccc(C)cc2)N1 [compound 37] | 12.5 (≈ 35 µM) | 6.3 (≈ 17.6 µM) | 3.1 (≈ 8.67 µM) | 3.1 (≈ 8.67 µM) | 3.1 (≈ 8.67 µM) | 3.1 (≈ 8.67 µM) | 12.5 (≈ 35 µM) | 6.3 (≈ 17.6 µM) | 6.3 (≈ 17.6 µM) | 25 (≈ 69.9 µM) | 25 (≈ 69.9 µM) | 12.5 (≈ 35 µM) |
